Measured values published in patent US20130252813A1, “Herbicidal Compositions for Tolerant or Resistant Sugar Beet Crops” (Bayer CropScience AG, priority 1998, published 2013).
Structures can show the parent of a compound that is named as a salt.

What was measured:
Format in all cases: in vivo
Setaria viridis [1] = experiment: Herbicidal action in sugar beet - field trial (Table 2); conditions: application in 2-4-leaf stage, scoring 3 weeks after application
Procedure: (§1) Transgenic sugar beet plants with resistance to one or more herbicides (A) were grown together with typical weed plants in the open in 2×5 m plots under natural field conditions; alternatively, the weed population established naturally while the sugar beet plants grew. Treatment with the compositions according to the invention and, for control purposes, with separate application of the active ingredients of the components alone, was carried out under standard conditions with a plot sprayer at an application rate of 200-300 liters of water per hectare in parallel trials in accordance with the scheme of Table 1, i.e. pre-sowing/pre-emergence, […] or post-emergence at the early, medium or late stage.
(§2) […] Damage and development of all aerial plant organs was recorded. The scoring was done using a percentage scale (100% activity=all plants dead; 50% activity=50% of the plants and green plant organs dead; 0% activity=no discernible effect=like control plot). The score values of in each case 4 plots were averaged.

transgenic sugar beet [2] = experiment: Damage to transgenic sugar beet - field trial (Table 2); conditions: application in 2-4-leaf stage
Procedure: as §1
(§3) At 2, 4, 6 and 8 week intervals after application, the herbicidal activity of the active ingredients or active ingredient mixtures were scored visually by comparing the treated plots with untreated control plots. Damage and development of all aerial plant organs was recorded. The scoring was done using a percentage scale (100% activity=all plants dead; 50% activity=50% of the plants and green plant organs dead; 0% activity=no discernible effect=like control plot). The score values of in each case 4 plots were averaged.

Galium aparine [3] = experiment: Herbicidal action in sugar beet crop (greenhouse experiment, Table 3); conditions: application in the 4-5-leaf stage, scoring 3 weeks after application
Excerpt: Seeds or rhizomes of monocotyledonous and dicotyledonous weeds are placed in sandy loam soil in cardboard pots, covered with soil and grown in the greenhouse under good growth conditions. […] The compositions according to the
Invention, which are formulated as wettable powders or as emulsion concentrates, are sprayed at various dosages onto the green plant organs at an application rate of 600 to 800 l of water per ha (converted). After the experimental plants have remained in the greenhouse for approx. 3 to 4 weeks under optimal growth conditions, the effect of the preparations is scored visually in comparison with untreated controls. The compositions according to the invention also have a good herbicidal activity against a broad spectrum of economically Important grass weeds and broad-leaved weeds when applied post-emergence.

transgenic sugar beet [4] = experiment: Damage to transgenic sugar beet (greenhouse experiment, Table 3); conditions: greenhouse Table 3, application in the 4-5-leaf stage
Echinochloa crus-galli = experiment: Herbicidal action and selectivity in sugar beet crop (field trial, Table 4); conditions: application in 3-leaf stage, scoring 4 weeks after application
Procedure: as §1, §3

transgenic sugar beet [5] = experiment: Damage to transgenic sugar beet (field trial, Table 4); conditions: application in 3-leaf stage
Procedure: as §1, §3

Avena fatua = experiment: Herbicidal action and selectivity in sugar beet crop (field trial, Table 5); conditions: application in the 3-5-leaf stage, scoring 4 weeks after application
Procedure: as §1, §3

transgenic sugar beet [6] = experiment: Damage to transgenic sugar beet (field trial, Table 5); conditions: application in the 3-5-leaf stage
Procedure: as §1, §3

Galium aparine [7] = experiment: Herbicidal action (field trial, Table 6); conditions: application in the 3-5-leaf stage, scoring 4 weeks after application
Procedure: as §1, §3

Kochia scoparia = experiment: Herbicidal action (field trial, Table 6); conditions: application in the 3-5-leaf stage, scoring 4 weeks after application
Procedure: as §1, §3

Amaranthus retroflexus = experiment: Herbicidal action (field trial, sequential treatment, Table 8); conditions: dose 200 g A.S./ha post-emergence at the 2-3-leaf stage; scorings 22 days after application
Procedure: as §1, §2

Setaria viridis [8] = experiment: as above; conditions: dose 200 g A.S./ha post-emergence at the 2-3-leaf stage; scorings 22 days after application
Procedure: as §1, §2

In the case of `CP(=O)(O)CCC(N)C(=O)O` (stereo not shown) [(A1.2), glufosinate monoammonium salt], the “Herbicidal action in % against Setaria viridis” value (Setaria viridis [1]; dose 37.5 g A.S./ha) is reported as 35%, the “Herbicidal action in % against Setaria viridis” value (Setaria viridis [1]; dose 75 g A.S./ha) is reported as 85% and the “Herbicidal action in % against Setaria viridis” value (Setaria viridis [1]; dose 150 g A.S./ha) is reported as 95%. The “Herbicidal action in % against Setaria viridis” value (Setaria viridis [1]; dose 300 g A.S./ha) was 98%, the “Damage to transgenic sugar beet” value (transgenic sugar beet [2]; dose 37.5 g A.S./ha) was 0 and the “Damage to transgenic sugar beet” value (transgenic sugar beet [2]; dose 75 g A.S./ha) was 0. The “Damage to transgenic sugar beet” value (transgenic sugar beet [2]; dose 150 g A.S./ha) was 0, the “Damage to transgenic sugar beet” value (transgenic sugar beet [2]; dose 300 g A.S./ha) was 0 and the “Herbicidal action in % against Galium aparine” value (Galium aparine [3]; dose 125 g A.S./ha) was 45%. The “Herbicidal action in % against Galium aparine” value (Galium aparine [3]; dose 250 g A.S./ha) was 60%, the “Herbicidal action in % against Galium aparine” value (Galium aparine [3]; dose 500 g A.S./ha) was 85% and the “Damage to transgenic sugar beet” value (transgenic sugar beet [4]; dose 125 g A.S./ha) was 0. For the same molecule, the “Damage to transgenic sugar beet” value (transgenic sugar beet [4]; dose 250 g A.S./ha) was 0, the “Damage to transgenic sugar beet” value (transgenic sugar beet [4]; dose 500 g A.S./ha) was 0 and the “Herbicidal action in % against Echinochloa crus-galli” value (Echinochloa crus-galli) was 45%. The “Herbicidal action in % against Echinochloa crus-galli” value (Echinochloa crus-galli; dose 10 g A.S./ha) was 60%, the “Herbicidal action in % against Echinochloa crus-galli” value (Echinochloa crus-galli; dose 65 g A.S./ha) was 85% and the “Damage to transgenic sugar beet” value (transgenic sugar beet [5]; dose 0 g A.S./ha) was 0. The “Damage to transgenic sugar beet” value (transgenic sugar beet [5]; dose 10 g A.S./ha) was 0, the “Damage to transgenic sugar beet” value (transgenic sugar beet [5]; dose 65 g A.S./ha) was 0 and the “Herbicidal action in % against Avena fatua” value (Avena fatua; dose 150 g A.S./ha) was 30%. For the same molecule, the “Herbicidal action in % against Avena fatua” value (Avena fatua; dose 300 g A.S./ha) was 65%, the “Herbicidal action in % against Avena fatua” value (Avena fatua; dose 600 g A.S./ha) was 95% and the “Damage to transgenic sugar beet” value (transgenic sugar beet [6]; dose 150 g A.S./ha) was 0. For the same molecule, the “Damage to transgenic sugar beet” value (transgenic sugar beet [6]; dose 300 g A.S./ha) was 0, the “Damage to transgenic sugar beet” value (transgenic sugar beet [6]; dose 600 g A.S./ha) was 0 and the “Herbicidal action in % against Galium aparine” value (Galium aparine [7]; dose 250 g A.S./ha) was 20%. The “Herbicidal action in % against Galium aparine” value (Galium aparine [7]; dose 300 g A.S./ha) was 40%, the “Herbicidal action in % against Galium aparine” value (Galium aparine [7]; dose 600 g A.S./ha) was 85% and the “Herbicidal action in % against Kochia scoparia” value (Kochia scoparia; dose 250 g A.S./ha) was 30%. For the same molecule, the “Herbicidal action in % against Kochia scoparia” value (Kochia scoparia; dose 300 g A.S./ha) was 52%, the “Herbicidal action in % against Kochia scoparia” value (Kochia scoparia; dose 600 g A.S./ha) was 75% and the “Herbicidal action in % against Amaranthus retroflexus” value (Amaranthus retroflexus) was 55%. The “Herbicidal action in % against Setaria viridis” value (Setaria viridis [8]) was 60%.
